Measured values taken from patent US20220347093A1, “PHARMACEUTICAL COMPOSITION” (University of Fukui, priority 2019, published 2022).

How the values were obtained:
[1] = test system: nasal polyps specimen surgically obtained from a patient with eosinophilic sinusitis; assay: Ex vivo incubation of nasal polyps specimens, weight change before/after about 24 h; design: species or system human; details: 37° C.; for (A) − (B) (mg), nasal polyps weight decrease / After incubation (mg) (B), nasal polyps specimen weight: single case; for nasal polyps weight change before and after incubation (paired t-test): 6 cases
Experimental: (§1) A heparinoid (organic sulfate group 25.8 to 37.3% w/w, D-glucuronic acid 19.0 to 24.0% w/w, Maruho Co., Ltd.) dried under reduced pressure was dissolved in saline to prepare heparinoid solutions (0.3, 30 and 3,000 μg/mL). A nasal polyps specimen was surgically obtained from a patient with eosinophilic sinusitis, cut into pieces of about 5 mm squares, wiped off the moisture and measured the weight. Each specimen was transferred to a 12-well plate. The specimen in the plate was incubated with 1 mL of saline or heparinoid solutions at 37° C. for about 24 hours. Then, after wiping off the moisture in the incubated specimen taken from the plate, the weight of the specimen was measured. The difference between specimen weights before and after incubation was used as an index of a nasal polyps reduction effect. The saline group and heparinoid solution groups (different in concentration) of FIG. 1 each consisted of 6 cases.
The reduction effects of heparinoid solutions (0.003, 0.03, 0.3 and 30 μg/mL) on nasal polyps were evaluated in the same method as in Example 1. The saline group and heparinoid solution groups (different in concentration) of FIG. 2 each consisted of 6 cases.
A PPS solution (0.003 μg/mL) was prepared and the reduction effect on nasal polyps was evaluated in the same method as in Example 1. PPS used herein was sodium pentosan polysulfate (weight average molecular weight 4,000 to 6,500, sulfur content 13.0 to 20.0% w/w, glucuronic acid content 2.5 to 4.0% w/w) manufactured by Molclone Labs. The saline group and PPS solution group of FIG. 3 each consisted of 6 cases.
The following 11 types of polysaccharide solutions (polysaccharides except glucomannan: 300 μg/mL; glucomannan 30 μg/mL) were prepared and the reduction effect on nasal polyps was evaluated in the same method as in Example 1. The saline groups and polysaccharide solution groups (different in concentration) of Tables 1 to 4 each consisted of a single case. • Chondroitin (chondroitin sodium, weight average molecular weight 42,351, sulfate group content 2.6%, manufactured by Maruho Co., Ltd.) • Low-molecular chondroitin sulfate (low-molecular sodium chondroitin sulfate, weight average molecular weight 11,500, sulfate group content 8.9%, manufactured by Maruho Co., Ltd.) • Chondroitin sulfate A (sodium chondroitin sulfate A, manufactured by PG Research) • Dermatan sulfate (sodium dermatan sulfate, manufactured by Tokyo Chemical Industry Co., Ltd.) • Chondroitin sulfate C (sodium chondroitin sulfate C, manufactured by PG Research) • Glucomannan (Propol A, manufactured by Shimizu Chemical Corporation) • Dextran sulfate (sodium dextran sulfate 500,000, manufactured by FUJIFILM Wako Pure Chemical Corporation) • Keratan sulfate (sodium keratan sulfate, manufactured by PG Research) • Inulin (manufactured by Tokyo Chemical Industry Co., Ltd.) • Heparan sulfate (manufactured by Toronto Research Chemicals, Inc.) • Xylo-oligosaccharide (xylo-hexaose, manufactured by Megazyme)

[2] = test system: rat nasal mucosal inflammation models; details: Non Patent Literature 4; cited from earlier work
[3] = test system: nasal polyps surgically obtained from patients with eosinophilic sinusitis; details: Non Patent Literature 5; cited from earlier work
[4] = test system: nasal polyps specimen surgically obtained from a patient with non-eosinophilic sinusitis; assay: Ex vivo incubation of nasal polyps specimens, weight change before/after about 24 h; design: species or system human; details: single case; for (A) − (B) (mg), nasal polyps weight decrease / After incubation (mg) (B), nasal polyps specimen weight: 37° C., about 24 hours; for nasal polyps weight change before and after incubation, in words: 0.03, 0.3, 30 and 300 μg/mL, individually
Experimental: as §1
In the same method as in Example 1, heparinoid solutions and PPS solutions (0.03, 0.3, 30 and 300 μg/mL, respectively) were prepared and the reduction effect on nasal polyps specimen surgically obtained from a patient with non-eosinophilic sinusitis was evaluated. The heparinoid and PPS were also the same as those used in Example 1 and Example 3, respectively. The saline groups, heparinoid solution group and PPS solution groups of Table 5 each consisted of a single case.

## OC1OC[C@@H](O[C@@H]2OC[C@@H](O[C@@H]3OC[C@@H](O[C@@H]4OC[C@@H](O[C@@H]5OC[C@@H](O[C@@H]6OC[C@@H](O)[C@H](O)[C@H]6O)[C@H](O)[C@H]5O)[C@H](O)[C@H]4O)[C@H](O)[C@H]3O)[C@H](O)[C@H]2O)[C@H](O)[C@H]1O (stereo partly shown) [Xylo-oligosaccharide, xylo-hexaose]
[1]; 300 μg/mL in saline
  (A) − (B) (mg), nasal polyps weight decrease: 17.9 mg
  After incubation (mg) (B), nasal polyps specimen weight: 110.4 mg

## Glucomannan
[1]; 30 μg/mL in saline
  (A) − (B) (mg), nasal polyps weight decrease: 19.0 mg
  After incubation (mg) (B), nasal polyps specimen weight: 81.0 mg

## Heparan sulfate
[1]; 300 μg/mL in saline
  (A) − (B) (mg), nasal polyps weight decrease: 25.5 mg
  After incubation (mg) (B), nasal polyps specimen weight: 103.0 mg

## Inulin
[1]; 300 μg/mL in saline
  (A) − (B) (mg), nasal polyps weight decrease: 46.1 mg
  After incubation (mg) (B), nasal polyps specimen weight: 85.3 mg

## chondroitin sodium
[1]; 300 μg/mL in saline
  (A) − (B) (mg), nasal polyps weight decrease: 32.8 mg
  After incubation (mg) (B), nasal polyps specimen weight: 122.0 mg

## heparin
[2]
  neutrophil infiltration: significantly suppress
  production of mucus: significantly suppress
[3]
  reduction effect on nasal polyps: did not show a reduction effect

## heparinoid
[4]; 0.03 μg/mL
  (A) − (B) (mg), nasal polyps weight decrease: 35.0 mg
  After incubation (mg) (B), nasal polyps specimen weight: 276.0 mg
[4]; 0.3 μg/mL
  (A) − (B) (mg), nasal polyps weight decrease: 28.0 mg
  After incubation (mg) (B), nasal polyps specimen weight: 181.0 mg
[4]; 30 μg/mL
  (A) − (B) (mg), nasal polyps weight decrease: 66.0 mg
  After incubation (mg) (B), nasal polyps specimen weight: 169.0 mg
[4]; 300 μg/mL
  (A) − (B) (mg), nasal polyps weight decrease: 30.0 mg
  After incubation (mg) (B), nasal polyps specimen weight: 246.0 mg
[4]
  nasal polyps weight change before and after incubation, in words: remarkably decreased
[1]; 0.003 μg/mL
  nasal polyps weight change before and after incubation (paired t-test): decreased significantly
[1]; 0.03 μg/mL
  nasal polyps weight change before and after incubation (paired t-test): decreased significantly
[1]; 0.3 μg/mL
  nasal polyps weight change before and after incubation (paired t-test): decreased significantly
[1]; 30 μg/mL
  nasal polyps weight change before and after incubation (paired t-test): decreased significantly
[1]; 3,000 μg/mL
  nasal polyps weight change before and after incubation (paired t-test): decreased significantly

## low-molecular sodium chondroitin sulfate [Low-molecular chondroitin sulfate]
[1]; 300 μg/mL in saline
  (A) − (B) (mg), nasal polyps weight decrease: 25.0 mg
  After incubation (mg) (B), nasal polyps specimen weight: 116.0 mg

## sodium chondroitin sulfate A
[1]; 300 μg/mL in saline
  (A) − (B) (mg), nasal polyps weight decrease: 38.0 mg
  After incubation (mg) (B), nasal polyps specimen weight: 68.0 mg

## sodium chondroitin sulfate C
[1]; 300 μg/mL in saline
  (A) − (B) (mg), nasal polyps weight decrease: 44.0 mg
  After incubation (mg) (B), nasal polyps specimen weight: 80.0 mg

## sodium dermatan sulfate
[1]; 300 μg/mL in saline
  (A) − (B) (mg), nasal polyps weight decrease: 13.1 mg
  After incubation (mg) (B), nasal polyps specimen weight: 118.5 mg

## sodium dextran sulfate 500,000
[1]; 300 μg/mL in saline
  (A) − (B) (mg), nasal polyps weight decrease: 22.0 mg
  After incubation (mg) (B), nasal polyps specimen weight: 120.0 mg

## sodium keratan sulfate
[1]; 300 μg/mL in saline
  (A) − (B) (mg), nasal polyps weight decrease: 18.3 mg
  After incubation (mg) (B), nasal polyps specimen weight: 147.3 mg

## sodium pentosan polysulfate [PPS]
[4]; 0.03 μg/mL
  (A) − (B) (mg), nasal polyps weight decrease: 19.0 mg
  After incubation (mg) (B), nasal polyps specimen weight: 214.0 mg
[4]; 0.3 μg/mL
  (A) − (B) (mg), nasal polyps weight decrease: 48.0 mg
  After incubation (mg) (B), nasal polyps specimen weight: 225.0 mg
[4]; 30 μg/mL
  (A) − (B) (mg), nasal polyps weight decrease: 13.0 mg
  After incubation (mg) (B), nasal polyps specimen weight: 207.0 mg
[4]; 300 μg/mL
  (A) − (B) (mg), nasal polyps weight decrease: 10.0 mg
  After incubation (mg) (B), nasal polyps specimen weight: 115.0 mg
[4]
  nasal polyps weight change before and after incubation, in words: remarkably decreased
[1]; 0.003 μg/mL
  nasal polyps weight change before and after incubation (paired t-test): decreased significantly
